From patent US9096598B2 (Merck Sharp & Dohme Corp., priority 2011, dated 2015)

What was measured:
JAK2 = biological target: T1, JAK2 (Homo sapiens, UniProt O60674); assay: Jak Biochemical HTRF Assay (JAK2); conditions: recombinant purified GST-tagged catalytic domain, [ATP] 8.5 μM, values given as range classes
T1 construct: recombinant purified GST-tagged catalytic domain for each enzyme; purchased Invitrogen M4290
Method: (§1) Jak Biochemical HTRF Assay Protocol
(§2) The ability of compounds to inhibit the activity of JAK1, JAK2, JAK3, and Tyk2 was measured using a recombinant purified GST-tagged catalytic domain for each enzyme (Invitrogen JAK1 #M4290, JAK2 #M4290, JAK3 #M4290, Tyk2 #M4290) in an HTRF format biochemical assay. The reactions employed a common peptide substrate, LCB-EQEDEPEGDYFEWLW-NH2 (in-house). The basic assay protocol is as follows: First, 250 nL of diluted compounds in DMSO were dispensed into the wells of a dry 384-well Black plate (Greiner #781076) using a Labcyte Echo 555 acoustic dispenser. Subsequent reagent additions employed an Agilent Bravo. Next, 18 μL of 1.11× enzyme and 1.11× substrate in 1× assay buffer (Invitrogen kinase buffer #PV3189, 2 mM DTT, 0.05% BSA) were added to the wells and shaken and then preincubated for 30 minutes at room temperature to allow compound binding to equilibrate. After equilibration, 2 μL of 10×ATP in 1× assay buffer was added to initiate the kinase reaction and the plates were shaken and then incubated at room temperature for 120 minutes. At the end of the incubation, 20 μL of 2× stop buffer (streptavidin-Dylight 650 (Thermo #84547B/100 mL), Eu-tagged pY20 antibody (Perkin Elmer #AD0067), EDTA, HEPES, and Triton) was added to quench the reaction. Plates were shaken and centrifuged and then incubated 60 minutes at room temperature and then read on a Perkin Elmer Envision (λex=337 nm, λem=665 and 615 nm, TRF delay time=20 μs). HTRF signal=10,000*665 nm reading/615 nm reading. After normalization to untreated controls, the percent inhibition of the HTRF signal at each compound concentration was calculated. The plot of percent inhibition versus the log of compound concentration was fit with a 4-parameter dose response equation to calculate IC50 values.
(§3) Final reaction conditions were:
(§4) Examples of the instant invention were evaluated in JAK2 and JAK3 in vitro binding assays. Table 13 tabulates the biological data disclosed for the instant invention as a range of JAK2 and JAK3 IC50 values (A: IC50≦10 nM; B: 10 nM>IC50≦500 nM C: IC50>500 nM).

JAK3 = biological target: T2, JAK3 (Homo sapiens, UniProt P52333); assay: Jak Biochemical HTRF Assay (JAK3); conditions: recombinant purified GST-tagged catalytic domain, [ATP] 2.9 μM, values given as range classes
T2 construct: recombinant purified GST-tagged catalytic domain for each enzyme; purchased Invitrogen M4290
Method: as §1, §2, §3, §4

T1 sequence (O60674 849-1124 limits assumed): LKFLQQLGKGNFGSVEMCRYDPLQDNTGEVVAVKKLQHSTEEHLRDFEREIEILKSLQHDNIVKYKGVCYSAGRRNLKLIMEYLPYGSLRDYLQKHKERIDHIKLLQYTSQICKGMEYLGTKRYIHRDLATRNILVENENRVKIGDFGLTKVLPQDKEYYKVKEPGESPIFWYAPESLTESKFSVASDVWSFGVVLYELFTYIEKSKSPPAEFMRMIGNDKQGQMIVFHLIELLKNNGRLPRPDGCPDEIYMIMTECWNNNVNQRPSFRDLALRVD
T2 sequence (P52333 822-1111 limits assumed): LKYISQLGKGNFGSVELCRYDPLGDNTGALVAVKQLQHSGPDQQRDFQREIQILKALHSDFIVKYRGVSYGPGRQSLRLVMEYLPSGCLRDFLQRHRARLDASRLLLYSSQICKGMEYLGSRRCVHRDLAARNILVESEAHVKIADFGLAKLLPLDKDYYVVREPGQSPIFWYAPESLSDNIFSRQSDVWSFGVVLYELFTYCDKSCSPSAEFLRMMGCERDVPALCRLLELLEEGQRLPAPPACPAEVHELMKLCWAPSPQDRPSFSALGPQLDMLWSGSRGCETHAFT

IC50 (JAK2)	IC50 (JAK3)	Compound
10 to 500 nM	≤ 10 nM	C[C@@H](Nc1cnnc(-c2c[nH]c3ncc(Cl)cc23)c1)C(=O)NCC(F)(F)F [Example 1-24, N~2~-[6-(5-chloro-1H-pyrrolo[2,3-b]pyridin-3-yl)pyridazin-4-yl]-N-(2,2,2-trifluoroethyl)-D-alaninamide]
10 to 500 nM	≤ 10 nM	C[C@@H](Nc1cnnc(-c2c[nH]c3ncc(C(F)(F)F)cc23)c1)C(=O)NCC(F)(F)F [Example 1-25, N-(2,2,2-trifluoroethyl)-N~2~-{6-[5-(trifluoromethyl)-1H-pyrrolo[2,3-b]pyridin-3-yl]pyridazin-4-yl}-D-alaninamide]
10 to 500 nM	10 to 500 nM	Clc1cnc2[nH]cc(-c3cc(N4CCCC4c4nccs4)cnn3)c2c1 (stereo not shown) [Example 1-26, 5-chloro-3-{5-[2-(1,3-thiazol-2-yl)pyrrolidin-1-yl]pyridazin-3-yl}-1H-pyrrolo[2,3-b]pyridine]
10 to 500 nM	≤ 10 nM	CC(C)(Nc1cncc(-c2c[nH]c3ncc(Cl)cc23)c1)C(=O)NCC(F)(F)F [Example 1-27, N~2~-[5-(5-chloro-1H-pyrrolo[2,3-b]pyridin-3-yl)pyridin-3-yl]-2-methyl-N-(2,2,2-trifluoroethyl)alaninamide]
10 to 500 nM	≤ 10 nM	Clc1cnc2[nH]cc(-c3cncc(N4CCCC4c4nccs4)c3)c2c1 (stereo not shown) [Example 1-28, 5-chloro-3-{5-[2-(1,3-thiazol-2-yl)pyrrolidin-1-yl]pyridin-3-yl}-1H-pyrrolo[2,3-b]pyridine]
10 to 500 nM	≤ 10 nM	C[C@@H](Nc1cncc(-c2c[nH]c3ncc(Cl)cc23)c1)C(=O)NCC(F)(F)F [Example 1-29, N~2~-[5-(5-chloro-1H-pyrrolo[2,3-b]pyridin-3-yl)pyridin-3-yl]-N-(2,2,2-trifluoroethyl)-D-alaninamide]
10 to 500 nM	10 to 500 nM	C[C@@H](Nc1cncc(-c2c[nH]c3ncc(F)cc23)c1)C(=O)NCC(F)(F)F [Example 1-30, N~2~-[5-(5-fluoro-1H-pyrrolo[2,3-b]pyridin-3-yl)pyridin-3-yl]-N-(2,2,2-trifluoroethyl)-D-alaninamide]
10 to 500 nM	≤ 10 nM	COc1cnc2[nH]cc(-c3cncc(N[C@H](C)C(=O)NCC(F)(F)F)c3)c2c1 [Example 1-31, N~2~-[5-(5-methoxy-1H-pyrrolo[2,3-b]pyridin-3-yl)pyridin-3-yl]-N-(2,2,2-trifluoroethyl)-D-alaninamide]
10 to 500 nM	≤ 10 nM	C[C@@H](Nc1cncc(-c2c[nH]c3ncc(C#N)cc23)c1)C(=O)NCC(F)(F)F [Example 1-32, N~2~-[5-(5-cyano-1H-pyrrolo[2,3-b]pyridin-3-yl)pyridin-3-yl]-N-(2,2,2-trifluoroethyl)-D-alaninamide]
10 to 500 nM	≤ 10 nM	O=C(NCC(F)(F)F)[C@H]1CCCC[C@H]1Nc1cncc(-c2c[nH]c3ncc(Cl)cc23)c1 [Example 1-33, (1S,2R)-2-{[5-(5-chloro-1H-pyrrolo[2,3-b]pyridin-3-yl)pyridin-3-yl]amino}-N-(2,2,2-trifluoroethyl)cyclohexane-carboxamide]
> 500 nM	≤ 10 nM	C[C@@H](Nc1cncc(-c2c[nH]c3ncc(S(C)(=O)=O)cc23)c1)C(=O)NCC(F)(F)F [Example 1-34, N~2~-{5-[5-(methylsulfonyl)-1H-pyrrolo[2,3-b]pyridin-3-yl]pyridin-3-yl}-N-(2,2,2-trifluoroethyl)-D-alaninamide]
10 to 500 nM	≤ 10 nM	CC(C(=O)NCC(F)(F)F)n1ccc2ncc(-c3c[nH]c4ncc(Cl)cc34)cc21 (stereo not shown) [Example 1-35, 2-[6-(5-chloro-1H-pyrrolo[2,3-b]pyridin-3-yl)-1H-pyrrolo[3,2-b]pyridin-1-yl]-N-(2,2,2-trifluoroethyl)propanamide]
> 500 nM	10 to 500 nM	C[C@@H](Nc1cncc(-c2c[nH]c3ncc(Cl)c(F)c23)c1)C(=O)NCC(F)(F)F [Example 1-36, N~2~-[5-(5-chloro-4-fluoro-1H-pyrrolo[2,3-b]pyridin-3-yl)pyridin-3-yl]-N-(2,2,2-trifluoroethyl)-D-alaninamide]
10 to 500 nM	≤ 10 nM	O=C(NCC(F)(F)F)[C@H]1CCCC[C@H]1Nc1cncc(-c2c[nH]c3ncc(F)cc23)c1 [Example 1-37, (1S,2R)-2-{[5-(5-fluoro-1H-pyrrolo[2,3-b]pyridin-3-yl)pyridin-3-yl]amino}-N-(2,2,2-trifluoroethyl)cyclohexane-carboxamide]
10 to 500 nM	≤ 10 nM	N#Cc1cnc2[nH]cc(-c3cncc(N[C@@H]4CCCC[C@@H]4C(=O)NCC(F)(F)F)c3)c2c1 [Example 1-38, (1S,2R)-2-{[5-(5-cyano-1H-pyrrolo[2,3-b]pyridin-3-yl)pyridin-3-yl]amino}-N-(2,2,2-trifluoroethyl)cyclohexane-carboxamide]
10 to 500 nM	≤ 10 nM	C[C@H](Nc1cc(-c2c[nH]c3ncc(Cl)cc23)cnc1F)C(=O)NCC(F)(F)F [Example 1-39, N~2~-[5-(5-chloro-1H-pyrrolo[2,3-b]pyridin-3-yl)-2-fluoropyridin-3-yl]-N-(2,2,2-trifluoroethyl)alaninamide]
≤ 10 nM	≤ 10 nM	NC(=O)c1cnc2[nH]cc(-c3cncc(N[C@@H]4CCCC[C@@H]4C(=O)NCC(F)(F)F)c3)c2c1 [Example 1-40, 3-[5-({(1R,2S)-2-[(2,2,2-trifluoroethyl)carbamoyl]cyclo-hexyl}amino)pyridin-3-yl]-1H-pyrrolo[2,3-b]pyridine-5-carboxamide]
10 to 500 nM	≤ 10 nM	CC(C)[C@H](Nc1cncc(-c2c[nH]c3ncc(C#N)cc23)c1)C(=O)NCC(F)(F)F [Example 1-41, N~2~-[5-(5-cyano-1H-pyrrolo[2,3-b]pyridin-3-yl)pyridin-3-yl]-N-(2,2,2-trifluoroethyl)valinamide]
10 to 500 nM	≤ 10 nM	CC(C)C(Nc1cncc(-c2c[nH]c3ncc(C(N)=O)cc23)c1)C(=O)NCC(F)(F)F (stereo not shown) [Example 1-42, 3-[5-({2-methyl-1-[(2,2,2-trifluoroethyl)carbamoyl]propyl}amino)pridin-3-yl]-1H-pyrrolo[2,3-b]pyridine-5-carboxamide]
10 to 500 nM	≤ 10 nM	CC(C)(Nc1cncc(-c2c[nH]c3ncc(F)cc23)c1)C(=O)NCC(F)(F)F [Example 1-43, N~2~-[5-(5-fluoro-1H-pyrrolo[2,3-b]pyridin-3-yl)pyridin-3-yl]-2-methyl-N-(2,2,2-trifluoroethyl)alaninamide]
10 to 500 nM	≤ 10 nM	CC(C)(Nc1cncc(-c2c[nH]c3ncc(C#N)cc23)c1)C(=O)NCC(F)(F)F [Example 1-44, N~2~-[5-(5-cyano-1H-pyrrolo[2,3-b]pyridin-3-yl)pyridin-3-yl]-2-methyl-N-(2,2,2-trifluoroethyl)alaninamide]
10 to 500 nM	≤ 10 nM	COc1cnc2[nH]cc(-c3cncc(N[C@H](C(=O)NCC(F)(F)F)C(C)C)c3)c2c1 [Example 1-45, N~2~-[5-(5-methoxy-1H-pyrrolo[2,3-b]pyridin-3-yl)pyridin-3-yl]-N-(2,2,2-trifluoroethyl)valinamide]
10 to 500 nM	≤ 10 nM	C[C@@H](Nc1cncc(-c2c[nH]c3ncc(C(N)=O)cc23)c1)C(=O)NCC(F)(F)F [Example 1-46, 3-[5-({(1R)-1-methyl-2-oxo-2-[(2,2,2-trifluoroethyl)amino]ethyl}amino)pyridin-3-yl]-1H-pyrrolo[2,3-b]pyridine-5-carboxamide]
10 to 500 nM	≤ 10 nM	CC(C)(Nc1cncc(-c2c[nH]c3ncc(C(N)=O)cc23)c1)C(=O)NCC(F)(F)F [Example 1-47, 3-[5-({1,1-dimethyl-2-oxo-2-[(2,2,2-trifluoroethyl)amino]ethyl}amino)pyridin-3-yl]-1H-pyrrolo[2,3-b]pyridine-5-carboxamide]
10 to 500 nM	≤ 10 nM	O=C(NCC(F)(F)F)C(Nc1cncc(-c2c[nH]c3ncc(Cl)cc23)c1)C1CC1 (stereo not shown) [Example 1-48, 2-{[5-(5-chloro-1H-pyrrolo[2,3-b]pyridin-3-yl)pyridin-3-yl]amino}-2-cyclopropyl-N-(2,2,2-trifluoroethyl)acetamide]
10 to 500 nM	≤ 10 nM	CC(C)(O)[C@@H](Nc1cncc(-c2c[nH]c3ncc(Cl)cc23)c1)C(=O)NCC(F)(F)F [Example 1-49, N~2~-[5-(5-chloro-1H-pyrrolo[2,3-b]pyridin-3-yl)pyridin-3-yl]-3-hydroxy-N-(2,2,2-trifluoroethyl)-D-valinamide]
